The text below walks through data of patent US12018021B2 (UCB Biopharma SRL, priority 2018, dated 2024).

Molecules are shown by their SMILES. pIC50: −log10 of the molar value.

IgE-Tb / FcεRIα-Y131A-AF488, sequence (P01854 1-427 limits assumed, stated change not applied): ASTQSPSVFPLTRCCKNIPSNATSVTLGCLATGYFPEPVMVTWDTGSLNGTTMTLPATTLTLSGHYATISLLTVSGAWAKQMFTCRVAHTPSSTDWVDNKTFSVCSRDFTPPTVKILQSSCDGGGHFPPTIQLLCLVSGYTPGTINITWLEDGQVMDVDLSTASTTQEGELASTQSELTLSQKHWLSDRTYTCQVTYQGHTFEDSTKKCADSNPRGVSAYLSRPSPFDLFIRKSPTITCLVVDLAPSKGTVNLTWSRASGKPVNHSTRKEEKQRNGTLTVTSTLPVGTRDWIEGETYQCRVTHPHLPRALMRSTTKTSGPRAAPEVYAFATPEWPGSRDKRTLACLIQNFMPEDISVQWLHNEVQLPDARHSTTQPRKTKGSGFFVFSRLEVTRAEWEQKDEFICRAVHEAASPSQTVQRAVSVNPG

The experiment concerns the target IgE-Tb / FcεRIα-Y131A-AF488 (Homo sapiens, UniProt P01854). Briefly: IgE-Tb / FcεRIα-Y131A-AF488 FRET assay (protocol for examples 1 to 233). The class given is binding. The settings on record: examples 1 to 233: 5 nM IgE-Tb, 25 nM FcεRIα-Y131A-AF488, incubated 2 hours at room temperature; read-out: Y131A FRET IC50 range. In short, it runs like this: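 TR-FRET displacement with 5 nM IgE-Tb and 25 nM FcεRIα-Y131A-AF488 (final), 10-point 3-fold compound dilutions from typically 10 μM top, 2% DMSO, 2 h at room temperature. Excitation 330 nm, 520/495 nm emission ratio; MIN set with 200 nM unlabelled FcεRIα. IC50 from four-parameter logistic fit of percent inhibition.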
By pIC50 is commonly meant the negative decadic logarithm of the IC50, by convention in mol/L. On to `CC1CCc2sc(NC(=O)C3CC3)c(C(=O)NCC3CC3)c2C1C` (stereo not drawn) [Example 89, 2-(Cyclopropanecarbonylamino)-N-(cyclopropylmethyl)-4,5-dimethyl-4,5,6,7-tetrahydrobenzothiophene-3-carboxamide], for which the pIC50 was 5.00 to 6.00.

`O=C1NC(=O)C2(CCc3sc(NC(=O)C4CC4)c(C(=O)NCC4CC4)c3C2)N1` (stereo not drawn) [Example 92, 2-(Cyclopropanecarbonylamino)-N-(cyclopropylmethyl)-2′,5′-dioxo-spiro[6,7-dihydro-4H-benzothiophene-5,4′-imidazolidine]-3-carboxamide]: the pIC50 was 5.00 to 6.00.

With `O=C(OCC1CC1)c1c(NC(=O)C2CC2)sc2c1CC(NC(=S)Nc1cccnc1)CC2` (stereo not drawn) [Example 93, Cyclopropylmethyl 2-(cyclopropanecarbonylamino)-5-(3-pyridylcarbamothioylamino)-4,5,6,7-tetrahydrobenzothiophene-3-carboxylate], the pIC50 was 5.00 to 6.00. In the case of `O=C(OCC1CC1)c1c(NC(=O)C2CC2)sc2c1CC(n1cnnc1Nc1cccnc1)CC2` (stereo not drawn) [Example 94, Cyclopropylmethyl 2-(cyclopropanecarbonylamino)-5-[3-(3-pyridylamino)-1,2,4-triazol-4-yl]-4,5,6,7-tetrahydrobenzothiophene-3-carboxylate], the pIC50 was greater than 6.00. Next, `CC(C)(C)OC(=O)NC1CCCc2c1sc(NC(=O)C1CC1)c2C(=O)NCC1CC1` (stereo not drawn) [Example 97, tert-Butyl N-[2-(cyclopropanecarbonylamino)-3-(cyclopropylmethylcarbamoyl)-4,5,6,7-tetrahydrobenzothiophen-7-yl]carbamate]: 5.00 to 6.00; `CCNC(=O)C1CCCc2c1sc(NC(=O)C1CC1)c2C(=O)NCC1CC1` (stereo not drawn) [Example 98, 2-(Cyclopropanecarbonylamino)-N3-(cyclopropylmethyl)-N7-ethyl-4,5,6,7-tetrahydrobenzothiophene-3,7-dicarboxamide]: 4.30 to 5.00; `O=C(NCC1CC1)c1c(NC(=O)C2CC2)sc2c1CC(c1cc[nH]n1)CC2` (stereo not drawn) [Example 100, 2-(Cyclopropanecarbonylamino)-N-(cyclopropylmethyl)-5-(1H-pyrazol-3-yl)-4,5,6,7-tetrahydrobenzothiophene-3-carboxamide]: greater than 6.00. On to `CCOC(=O)c1c(NC(=O)C2CC2)sc2c1CCCC2O` (stereo not drawn) [Example 103, Ethyl 2-(cyclopropanecarbonylamino)-7-hydroxy-4,5,6,7-tetrahydrobenzothiophene-3-carboxylate], for which the pIC50 is 4.30 to 5.00.

As for `N#Cc1ncn([C@H]2CCc3sc(NC(=O)C4CC4)c(C(=O)NCC4CC4)c3C2)c1N` [Example 104, (5S)-5-(5-Amino-4-cyano-imidazol-1-yl)-2-(cyclopropanecarbonylamino)-N-(cyclopropylmethyl)-4,5,6,7-tetrahydrobenzothiophene-3-carboxamide], the negative logarithm of the IC50 (pIC50) was greater than 6.00.

As to `Cc1cc(Nc2nncn2[C@H]2CCc3sc(NC(=O)C4CC4)c(C(=O)NCC4CC4)c3C2)n(C)n1` [Example 106, (5S)-2-(Cyclopropanecarbonylamino)-N-(cyclopropylmethyl)-5-[3-[(2,5-dimethylpyrazol-3-yl)amino]-1,2,4-triazol-4-yl]-4,5,6,7-tetrahydrobenzothiophene-3-carboxamide], the negative-log IC50 (pIC50) was greater than 6.00. Next, `Cc1cc(-n2cnnc2N[C@H]2CCc3sc(NC(=O)C4CC4)c(C(=O)NCC4CC4)c3C2)n(C)n1` [Example 107, (5S)-2-(Cyclopropanecarbonylamino)-N-(cyclopropylmethyl)-5-[[4-(2,5-dimethylpyrazol-3-yl)-1,2,4-triazol-3-yl]amino]-4,5,6,7-tetrahydrobenzothiophene-3-carboxamide]: 5.00 to 6.00; `Cc1cc(Nc2nncn2[C@H]2CCc3sc(NC(=O)C4CC4)c(C(=O)NCC(C)C)c3C2)n(C)n1` [Example 108, (5S)-2-(Cyclopropanecarbonylamino)-5-[3-[(2,5-dimethylpyrazol-3-yl)amino]-1,2,4-triazol-4-yl]-N-isobutyl-4,5,6,7-tetrahydrobenzothiophene-3-carboxamide]: greater than 6.00. Next, `NC1CCc2sc(NC(=O)C3CC3)c(C(=O)NCC3CC3)c2C1` (stereo not drawn) [Example 109, 5-Amino-2-(cyclopropanecarbonylamino)-N-(cyclopropylmethyl)-4,5,6,7-tetrahydrobenzothiophene-3-carboxamide]: 4.30 to 5.00; `N#CN=C(Nc1ccccc1)NC1CCc2sc(NC(=O)C3CC3)c(C(=O)NCC3CC3)c2C1` (stereo not drawn) [Example 110, 5-[[N′-Cyano-N-phenyl-carbamimidoyl]amino]-2-(cyclopropanecarbonylamino)-N-(cyclopropylmethyl)-4,5,6,7-tetrahydrobenzothiophene-3-carboxamide]: greater than 6.00. In the case of `CC1(CNc2nncn2[C@H]2CCc3sc(NC(=O)C4CC4)c(C(=O)NCC4CC4)c3C2)CC1` [Example 112, (5S)-2-(Cyclopropanecarbonylamino)-N-(cyclopropylmethyl)-5-[3-[(1-methylcyclopropyl)methylamino]-1,2,4-triazol-4-yl]-4,5,6,7-tetrahydrobenzothiophene-3-carboxamide], the pIC50 is greater than 6.00.

In the case of `CC(=O)Nc1cncn1[C@H]1CCc2sc(NC(=O)C3CC3)c(C(=O)NCC3CC3)c2C1` [Example 113, (5S)-5-(5-Acetamidoimidazol-1-yl)-2-(cyclopropanecarbonylamino)-N-(cyclopropylmethyl)-4,5,6,7-tetrahydrobenzothiophene-3-carboxamide], the negative logarithm of the IC50 (pIC50) is greater than 6.00. Next, `O=C(NCC1CC1)c1c(NC(=O)C2CC2)sc2c1C[C@@H](n1cnnc1Nc1ccncc1)CC2` [Example 115, (5S)-2-(Cyclopropanecarbonylamino)-N-(cyclopropylmethyl)-5-[3-(4-pyridylamino)-1,2,4-triazo-4-yl]-4,5,6,7-tetrahydrobenzothiophene-3-carboxamide]: greater than 6.00; `COc1ccc(NC(=NC#N)NC2CCc3sc(NC(=O)C4CC4)c(C(=O)NCC4CC4)c3C2)cc1OC` (stereo not drawn) [Example 116, 5-[[N′-Cyano-N-(3,4-dimethoxyphenyl)carbamimidoyl]amino]-2-(cyclopropanecarbonylamino)-N-(cyclopropylmethyl)-4,5,6,7-tetrahydrobenzothiophene-3-carboxamide]: greater than 6.00; `CCOC(=O)c1ncn([C@H]2CCc3sc(NC(=O)C4CC4)c(C(=O)NCC4CC4)c3C2)c1N` [Example 117, Ethyl 5-amino-1-[(5S)-2-(cyclopropanecarbonylamino)-3-(cyclopropylmethylcarbamoyl)-4,5,6,7-tetrahydrobenzothiophen-5-yl]imidazole-4-carboxylate]: greater than 6.00. As for `O=C(NCC1CC1)c1c(NC(=O)C2CC2)sc2c1CC(Nc1noc(=O)[nH]1)CC2` (stereo not drawn) [Example 119, 2-(Cyclopropanecarbonylamino)-N-(cyclopropylmethyl)-5-[(5-oxo-4H-1,2,4-oxadiazol-3-yl)amino]-4,5,6,7-tetrahydrobenzothiophene-3-carboxamide], the pIC50 was greater than 6.00. Next, `CCNc1c(NC2CCc3sc(NC(=O)C4CC4)c(C(=O)NCC4CC4)c3C2)c(=O)c1=O` (stereo not drawn) [Example 120, 2-(Cyclopropanecarbonylamino)-N-(cyclopropylmethyl)-5-[[2-(ethylamino)-3,4-dioxo-cyclobuten-1-yl]amino]-4,5,6,7-tetrahydrobenzothiophene-3-carboxamide]: greater than 6.00.

On to `N#CN=C(NCC(F)(F)F)NC1CCc2sc(NC(=O)C3CC3)c(C(=O)NCC3CC3)c2C1` (stereo not drawn) [Example 121, 5-[[N′-cyano-N-(2,2,2-trifluoroethyl)carbamimidoyl]amino]-2-(cyclopropanecarbonylamino)-N-(cyclopropylmethyl)-4,5,6,7-tetrahydrobenzothiophene-3-carboxamide], for which the pIC50 was greater than 6.00. Turning to `CCNc1nncn1[C@H]1CCc2sc(NC(=O)C3CC3)c(C(=O)NCC3CC3)c2C1` [Example 122, (5S)-2-(cyclopropanecarbonylamino)-N-(cyclopropylmethyl)-5-[3-(ethylamino)-1,2,4-triazol-4-yl]-4,5,6,7-tetrahydrobenzothiophene-3-carboxamide], the pIC50 is greater than 6.00. Next, `CCNC(=N[N+](=O)[O-])NC1CCc2sc(NC(=O)C3CC3)c(C(=O)NCC3CC3)c2C1` (stereo not drawn) [Example 123, 2-(cyclopropanecarbonylamino)-N-(cyclopropylmethyl)-5-[(N-ethyl-N′-nitro-carbamimidoyl)amino]-4,5,6,7-tetrahydrobenzothiophene-3-carboxamide]: greater than 6.00; `O=C(NCC1CC1)c1c(NC(=O)C2CC2)sc2c1C[C@@H](n1cnnc1Nc1cccnc1)CC2` [Example 124, (5S)-2-(Cyclopropanecarbonylamino)-N-(cyclopropylmethyl)-5-[3-(3-pyridylamino)-1,2,4-triazol-4-yl]-4,5,6,7-tetrahydrobenzothiophene-3-carboxamide]: greater than 6.00.

Turning to `O=C(NCC1CC1)c1c(NC(=O)C2CC2)sc2c1C[C@@H](n1cnnc1Nc1ccc[n+]([O-])c1)CC2` [Example 125, (5S)-2-(Cyclopropanecarbonylamino)-N-(cyclopropylmethyl)-5-[3-[(1-oxidopyridin-1-ium-3-yl)amino]-1,2,4-triazol-4-yl]-4,5,6,7-tetrahydrobenzothiophene-3-carboxamide], the pIC50 is greater than 6.00. Turning to `Cc1ccc(NC(=N[N+](=O)[O-])NC2CCc3sc(NC(=O)C4CC4)c(C(=O)NCC4CC4)c3C2)cc1` (stereo not drawn) [Example 126, 2-(cyclopropanecarbonylamino)-N-(cyclopropylmethyl)-5-[[N′-nitro-N-(p-tolyl)carbamimidoyl]amino]-4,5,6,7-tetrahydrobenzothiophene-3-carboxamide], the pIC50 was greater than 6.00.
